From US20070259375A1, “Biomarkers and Methods for Determining Sensitivity to Epidermal Growth Factor Receptor Modulators in Non-Small Cell Lung Cancer” (Bristol-Myers Squibb Company, priority 2004, published 2007)

Tests used:
[1] = system: LX1 lung xenograft; experiment: In vivo antitumor testing, lung xenograft model; conditions: nude mice
Protocol: (§1) Tumors were propagated in nude mice as subcutaneous (sc) transplants using tumor fragments obtained from donor mice. Tumor passage occurred approximately every two to four weeks. Tumors were then allowed to grow to the pre-determined size window (usually between 100-200 mg, tumors outside the range were excluded) and animals were evenly distributed to various treatment and control groups. […] Treated animals were checked daily for treatment related toxicity/mortality. Each group of animals was weighed before the initiation of treatment (Wt1) and then again following the last treatment dose (Wt2). The difference in body weight (Wt2-Wt1) provided a measure of treatment-related toxicity. Tumor response was determined by measurement of tumors with a caliper twice a week, until the tumors reached a predetermined target size of 1 gm or became necrotic. Tumor weights (mg) were estimated from the formula: Tumor weight=(length×width^2)/2 Antitumor activity was determined in terms of primary tumor growth inhibition. This was determined in two ways: (i) calculating the relative median tumor weight (MTW) of treated (T) and control (C) mice at various time points (effects were expressed as % T/C); and (ii) calculating the tumor growth delay (T-C value), defined as the difference in time (days) required for the treated tumors (T) to reach a predetermined target size compared to those of the control group (C). Statistical evaluations of data were performed using Gehan's generalized Wilcoxon test for comparisons of time to reach tumor target size (Gehan 1965). Statistical significance was declared at p<0.05. Antitumor activity was defined as a continuous MTW % T/C≦50% for at least 1 tumor volume doubling time (TVDT) any time after the start of treatment, where TVDT (tumor volume doubling time)=median time (days) for control tumors to reach target size−median time (days) for control tumors to reach half the target size.
(§2) Treated animals were checked daily for treatment related toxicity/mortality.

[2] = system: L2987 lung xenograft; experiment: In vivo antitumor testing, lung xenograft model; conditions: nude mice
Protocol: as §1, §2

[3] = system: A549 lung xenograft; experiment: In vivo antitumor testing, lung xenograft model; conditions: nude mice
Protocol: as §1, §2

[4] = system: ChagoK1; experiment: Relative drug sensitivity in NSCLC cell lines, BrdU Cell Proliferation ELISA; format: cell-based, human; conditions: ChagoK1 cell line
Protocol: (§3) The NSCLC cell lines were grown using standard cell culture conditions: DMEM supplemented to contain 10% fetal bovine serum, 100 IU/ml penicillin, […] streptomycin and 2 mM L-glutamine (all from Invitrogen Life Technologies, Carlsbad, Calif.). […] Cytotoxicity was assessed in cells by BrdU Cell Proliferation calorimetric ELISA (Roche Applied Science, Indianapolis, Ind.). This is a calorimetric immunoassay for the quantification of cell proliferation based on the measurement of BrdU incorporation during DNA synthesis. To carry out the assays, the NSCLC cells were plated at 2500-5000 cells/well in 96 well microtiter plates and 24 hours later diluted monoclonal antibody drug was added. […] The cells were incubated at 37° C. for 48 hours at which time the BrdU labeling reagent was added. After two hours the labeling medium was removed and cells were fixed and the DNA was denatured using a FixDenat solution. The anti-BrdU antibody conjugated with peroxidase was added and immune complexes were detected by the subsequent substrate reaction. The reaction product was quantified by measuring the absorbance of the samples in an ELISA reader at […]. The greater the absorbency, the greater the number of live cells. […] Three to six independent BrdU assays were performed for each cell line.

[5] = system: LX1; experiment: as above; format: cell-based, human; conditions: LX1 (LX-1) cell line, EGFR negative
Protocol: as §3

[6] = system: H522; experiment: as above; format: cell-based, human; conditions: H522 cell line, EGFR negative
Protocol: as §3

[7] = system: L2987; experiment: as above; format: cell-based, human; conditions: L2987 cell line
Protocol: as §3

[8] = system: A549; experiment: as above; format: cell-based, human; conditions: A549 cell line, EGFR+
Protocol: as §3

[9] = system: H226; experiment: as above; format: cell-based, human; conditions: H226 cell line, EGFR+
Protocol: as §3

COc1cc2ncnc(Nc3ccc(F)c(Cl)c3)c2cc1OCCCN1CCOCC1 [gefitinib]
borderline sensitive: sensitivity of lung xenograft model [3]
sensitive: sensitivity of lung xenograft model [2] | resistance/sensitivity classification [4]
resistant: sensitivity of lung xenograft model [1] | resistance/sensitivity classification [5] | resistance/sensitivity classification [6] | resistance/sensitivity classification [7] | resistance/sensitivity classification [8] | resistance/sensitivity classification [9]
